Patent publication US20020013478A1, “Calanolide analogues and methods of their use” (Sarawak Medichem Pharmaceuticals,Inc., priority 1994, published 2002)

Legend:
2.2.15 cells = assay: Toxicity in 2.2.15 cells, neutral red dye uptake; type: cell-based, human; settings: Table II; read-out: HBV IC50
Protocol: Cells of 2.2.15 were grown to confluence in 96-well flat-bottomed tissue culture plates and treated with compounds (in 0.2 mL culture medium/well) as described above. Four concentrations of each compound were assayed, each in triplicate cultures, in 3- to 10-fold steps. Untreated control cultures were maintained on each 96-well plate. On each 96-well plate, wells containing no cells were used to correct for light scattering.

HCMV = HCMV semi-automated CPE-inhibition assay in human foreskin fibroblast cells; type: cell-based, human cytomegalovirus; settings: Table II
[1] = tested on: human foreskin fibroblast cells; assay: Toxicity run with the HCMV assay, human foreskin fibroblast cells; type: cell-based; settings: Table II
Outline: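 Human foreskin fibroblasts exposed to drug at 37 °C in CO2, either 72 h followed by Coulter Counter counts (triplicate counts, three replicate wells), or seven days followed by dye staining for 1 h and optical density at 550 nm.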

VZV = VZV plaque reduction assay in human foreskin fibroblast cells; type: cell-based, varicella zoster virus; settings: Table II
Protocol: Two days prior to use, HFF cells are plated into six-well plates and incubated at 37° C. with 5% CO2 and 90% humidity. On the date of assay, the drug is made up at twice the desired concentration in 2x MEM and then serially diluted 1:5 in 2x MEM using six concentrations of drug. The initial starting concentration is usually 200 gg/mL down to 0.06 μg/mL. The virus to be used is diluted in MEM containing 10% FBS to a desired concentration which will give 20-30 plaques per well. The media is then aspirated from the wells and 0.2 mL of virus is added to each well in duplicate with 0.2 mL of media being added to drug toxicity wells. The plates are then incubated for one hour with shaking every fifteen minutes. After the incubation period, an equal amount of 1% agarose was added to an equal volume of each drug dilution. This will give final drug concentrations beginning with 100 μg/mL and ending with 0.03 μg/mL and a final agarose overlay concentration of 0.5%. The drug agarose mixture is applied to each well in 2 mL volume and the plates then incubated for three days, after which the cells were stained with a 1.5% solution of neutral red. At the end of 4-6hr incubation period, the stain is aspirated, and plaques counted using a stereomicroscope at lOx magnification.
The procedure is essentially the same as for the HSV plaque assay described above with two exceptions:
1. After addition of the drug, the plates are incubated for ten days.
2. On days three and six, an additional 1 mL overlay with equal amounts of 2x MEM and 1% agarose are added.

[2] = tested on: human foreskin fibroblast cells; assay: Toxicity run with the VZV assay, human foreskin fibroblast cells; type: cell-based; settings: Table II
Protocol: [table] […] The media from the wells is then aspirated and 2 mL of each drug concentration is then added to each well. The cells are then incubated in a CO2 incubator at 37° C. for 72 h. At the end of this time, the media-drug solution is removed and the cells washed. […] The cell-media mixture is then pipetted up and down vigorously to break up the cell suspension, and 0.2 mL of the mixture is added to 9.8 mL of Isoton III and counted using a Coulter Counter. Each sample is counted three times with three replicate wells per sample. The procedure for plating cells and adding drug is the same as for the MTT Assay. After drug addition, the plates are incubated for seven days in a CO2 incubator at 37° C. […] This is incubated in the CO2 incubator for one hour. The dye is aspirated and the cells are washed using a Nunc Plate Washer. […] The plates are rotated for 15 minutes and the optical densities are read at 550 nm on a plate reader.

measles = assay: Measles virus inhibition of viral CPE in BSC-1 cells; type: cell-based; settings: Table II footnote g
[3] = tested on: HCMV isolates Towne, AD169, E. Mann, Coffman, C9208; assay: Anti-CMV plaque reduction assay against various laboratory and clinical isolates (Example 40); type: cell-based, human cytomegalovirus
Protocol: On the date of assay, the drug is made up at twice the desired concentration in 2x MEM and then serially diluted 1:5 in 2x MEM using six concentrations of drug. The initial starting concentration is usually 200 gg/mL down to 0.06 μg/mL. […] The media is then aspirated from the wells and 0.2 mL of virus is added to each well in duplicate with 0.2 mL of media being added to drug toxicity wells. The plates are then incubated for one hour with shaking every fifteen minutes. […] This will give final drug concentrations beginning with 100 μg/mL and ending with 0.03 μg/mL and a final agarose overlay concentration of 0.5%. The drug agarose mixture is applied to each well in 2 mL volume and the plates then incubated for three days, after which the cells were stained with a 1.5% solution of neutral red. At the end of 4-6hr incubation period, the stain is aspirated, and plaques counted using a stereomicroscope at lOx magnification. The procedure again is nearly the same as for HSV with a few minor changes. […] The assay is incubated for 14 days with the additional 1 mL overlays being applied on days four and eight. The procedure for the liquid overlay plaque assay is similar to that using the agarose overlay. The procedure for adding the virus is the same as for the regular plaque assay. The drugs are made up in a concentration to be used in MEM with 2% FBS. The drugs are not made up at 2x concentration as in the previous assays but are made up at the desired concentration. For HSV-1 and HSV-2 assays, an antibody preparation obtained from Baxter Health Care Corporation is diluted 1:500 and added to the media that the drug is diluted in. For CMV and VZV, no antibody in the overlay is utilized. For the CMV assay, additional medium without new drug is added on day five and allowed to incubate for a total of 10 days. For VZV, additional medium is added on day five and incubated for a total of 10 days. At the end of the incubation period for all of the assays, 2 mL of 1:10 dilution of stock neutral is added to each well incubated for six hours. The liquid is then aspirated off and plaques enumerated using a stereomicroscope. Five calanolide analogues, prepared as described above, were further evaluated for their anti-HCMV activity in plaque reduction assay against various laboratory and clinical isolates (Towne, AD 169, E. Mann, Coffinan, and […]).

[4] = tested on: human foreskin fibroblast cells; assay: Cell viability in the CMV plaque reduction assay (MTC); type: cell-based
Source text: Five calanolide analogues, prepared as described above, were further evaluated for their anti-HCMV activity in plaque reduction assay against various laboratory and clinical isolates (Towne, AD 169, E. Mann, Coffinan, and C9208).

[5] = tested on: Human lung carcinoma (A549) cells; assay: Cytotoxicity run with the adenovirus assay; settings: read-out: Others IC50, against adenovirus type-1; Table II footnote h
HBV = HBV replication in cultures of 2.2.15 cells, extracellular HBV virion DNA (primary assay); settings: read-out: HBV EC50; Table II
Protocol: Both intracellular and extracellular HBV DNA are analyzed in order to (i) allow for verification of compound efficacy and (ii) provide possible data on the target site in the HBV replication pathway for the compound from examination of the pattern of viral replicative forms. The culture medium is changed daily during the treatment period to (i) prevent the buildup of potentially toxic metabolites derived from test compounds and (ii) provide an analysis of HBV virion production during discrete 24-hour intervals which enables a quantitative comparison of any effect on virion production.
The analysis of HBV DNA is performed using blot hybridization techniques (Southern and slot blot) and [^32P]-labeled HBV-specific probes. HBV DNA levels are measured by comparison to known amounts of HBV DNA standards applied to every nitrocellulose membrane (gel or slot blot). An AMBIS beta scanner, which measures the radioactive decay of the hybridized probes directly from the nitrocellulose membranes, is used for the quantitative analysis. Standard curves, generated by multiple analyses, are used to correlate CPM measurements made by the beta scanner with relative levels of target HBV DNA. The levels of HBV virion DNA released into the culture medium are analyzed by a slot blot hybridization procedure.

EBV = EBV assay: superinfection of Raji or Daudi cells with P3HR-1, immunofluorescence for EA and VCA; type: cell-based, Epstein-Barr virus; settings: Table II
Source text: There are two prototypes of infectious EBV. One is exemplified by the virus derived from supernatant fluids of the P3HR-1cell line. This cell line produces nontransforming virus that causes the production of early antigen (EA) after primary infection or superinfection of B cell lines. The other prototype is exemplified by the B-95-8 virus. This virus immortalized cord blood lymphocytes and induced tumors in marmosets.
The virus used in our assays is P3HR-1.
Ramos is an exceptional B cell line derived from Burkitt's lymphoma tumor but containing no detectable EBV genome copies and is EBNA negative. Ramos/AW was obtained by in vitro infection of Ramos with the P3HR-1 virus and contains one resident EBV genome copy/cell. Raji is a Burkitt's lymphoma cell line containing 60 EBV genomes/cell, and will be the primary cell used for screening antiviral activity against EBV EA expression. Daudi is a low level producer that contains 152 EBV genome copies/cell. It spontaneously expresses EBV EA in 0.25%-0.5% of the cells. It will be used in follow-up studies to confirm activity. These cell lines respond to superinfection by EBV by expressing EA(D), EA(R), and VCA. All cell lines are maintained in RPMI-1640 medium supplemented by 10% FCS, L-glutamine and 100 μg/mL gentamicin. The cultures are fed twice weekly and the cell concentration adjusted to 3×10^5/mL. The cells are kept at 37° C. in a humidified atmosphere with 5% CO2.
Cells are infected with the P3HR-1 strain of EBV and the drugs to be tested are added after adsorption (45 minutes at 37° C.) and washing of the cell cultures. The cultures are incubated for two days in complete medium to allow viral gene expression. Following the 48 hr incubation period, the number of cells of each sample are counted and smears made. Monoclonal antibodies to the different EA components and VCA are then added to the cells incubated and washed. This is followed by a fluorescein conjugated rabbit anti-mouse Ig antibody; and the number of fluorescence positive cells in the smears are counted. The total number of cells in the cultures positive for EA or VCA are then calculated and compared.

Raji or Daudi cells = assay: Toxicity run with the EBV assay; type: cell-based, human; settings: Table II
Source text: IC50 (50% inhibitory concentration) is the concentration required to inhibit cell proliferation by 50%

influenza A(H1N1) = assay: Influenza A inhibition of viral CPE in MDCK cells; type: cell-based, influenza A virus; settings: Table II footnote i; read-out: Others EC50, against influenza A(H1N1)
[6] = tested on: Madin Darby canine kidney (MDCK) cells; assay: Cytotoxicity run with the influenza assay; type: cell-based; settings: Table II footnote i; read-out: Others IC50, against influenza A(H1N1)
Protocol: Virus strains: A/Texas/36191 (H1N1) (Source: Center for Disease Control and Prevention [CDC]), A/Beijing/2/92 (H3N2) (Source: CDC), B/Panama/45/90 (Source: CDC), A/NWS/33 (H1N1) (Source: American Type Culture Collection [ATCC]). (All but A/NWS/33 are tested in the presence of trypsin). Cell lines: Madin Darby canine kidney (MDCK) cells.

Question: How did the IC50 (2.2.15 cells) turn out when `CCCc1cc(=O)oc2c3c(c4c(c12)OC(C)(C)CC4)OC(C)C(C)C3O` (single isomer, unassigned; (-)) [(−)-23] was run?
Answer: 340 µM

Question: What about the “HCMV EC50” value (HCMV) of the same molecule?
Answer: >4.0 µg/mL

Question: And the “HCMV IC50” value [1]?
Answer: 18.8 µg/mL

Question: And the “VZV EC50” value (VZV)?
Answer: >4.0 µg/mL

Question: What about the “VZV IC50” value [2] of the same molecule?
Answer: 16.0 µg/mL

Question: What about the “Others EC50, against measles” value (measles) of the same molecule?
Answer: 20^g μM

Question: And the EC50 ([3]; isolate AD169)?
Answer: 3.16 µM

Question: And the EC50 ([3]; isolate C9208)?
Answer: 2.99 µM

Question: And the EC50 ([3]; isolate Coffman)?
Answer: 3.16 µM

Question: What about the EC50 ([3]; isolate E. Mann) of the same molecule?
Answer: 3.16 µM

Question: What about the EC50 ([3]; isolate Towne) of the same molecule?
Answer: 3.16 µM

Question: What about the “MTC (minimum drug concentration that reduced cell viability by 25%)” value ([4]; isolate AD169) of the same molecule?
Answer: 10 µM

Question: And the “MTC (minimum drug concentration that reduced cell viability by 25%)” value ([4]; isolate C9208)?
Answer: 10 µM

Question: And the “MTC (minimum drug concentration that reduced cell viability by 25%)” value ([4]; isolate Coffman)?
Answer: <100 µM

Question: And the “MTC (minimum drug concentration that reduced cell viability by 25%)” value ([4]; isolate E. Mann)?
Answer: 10 µM

Question: And the “MTC (minimum drug concentration that reduced cell viability by 25%)” value ([4]; isolate Towne)?
Answer: 10 µM

Question: What about the IC50 [5] of the same molecule?
Answer: > 100 µM

Question: And the EC50 (HBV)?
Answer: 3.5 µM

Question: What does the source list for `CC1Oc2c3c(c4c(-c5ccccc5)cc(=O)oc4c2C(O)C1C)OC(C)(C)C=C3` (single isomer, unassigned; (-)) [(−)-24]?
Answer: IC50 (2.2.15 cells): 151 µM; HCMV EC50 (HCMV): >4.0 µg/mL; HCMV IC50 [1]: 14.4 µg/mL; EBV EC50 (EBV): >50 µg/mL; EBV IC50 (Raji or Daudi cells): >50 µg/mL; VZV EC50 (VZV): >4.0 µg/mL; VZV IC50 [2]: 12.0 µg/mL; EC50 (influenza A(H1N1)): 57 µM; IC50 [6]: > 100 µM; EC50 (HBV): > 10 µM
